{"source": "patent US20140271474A1", "about": "“INHIBITOR PROBES FOR IMAGING SODIUM-GLUCOSE COTRANSPORTERS IN HEALTH AND DISEASE” (THE REGENTS OF THE UNIVERSITY OF CALIFORNIA, priority 2011, published 2014)", "key": {"[1]": {"test_system": "SGLTs", "details": "cited from earlier work"}, "[2]": {"test_system": "SGLT2 over SGLT1", "details": "cited from earlier work"}, "[3]": {"biological_target": "T1, SGLT2 (Rattus norvegicus, UniProt P53792)", "T1 sequence (P53792 1-670)": "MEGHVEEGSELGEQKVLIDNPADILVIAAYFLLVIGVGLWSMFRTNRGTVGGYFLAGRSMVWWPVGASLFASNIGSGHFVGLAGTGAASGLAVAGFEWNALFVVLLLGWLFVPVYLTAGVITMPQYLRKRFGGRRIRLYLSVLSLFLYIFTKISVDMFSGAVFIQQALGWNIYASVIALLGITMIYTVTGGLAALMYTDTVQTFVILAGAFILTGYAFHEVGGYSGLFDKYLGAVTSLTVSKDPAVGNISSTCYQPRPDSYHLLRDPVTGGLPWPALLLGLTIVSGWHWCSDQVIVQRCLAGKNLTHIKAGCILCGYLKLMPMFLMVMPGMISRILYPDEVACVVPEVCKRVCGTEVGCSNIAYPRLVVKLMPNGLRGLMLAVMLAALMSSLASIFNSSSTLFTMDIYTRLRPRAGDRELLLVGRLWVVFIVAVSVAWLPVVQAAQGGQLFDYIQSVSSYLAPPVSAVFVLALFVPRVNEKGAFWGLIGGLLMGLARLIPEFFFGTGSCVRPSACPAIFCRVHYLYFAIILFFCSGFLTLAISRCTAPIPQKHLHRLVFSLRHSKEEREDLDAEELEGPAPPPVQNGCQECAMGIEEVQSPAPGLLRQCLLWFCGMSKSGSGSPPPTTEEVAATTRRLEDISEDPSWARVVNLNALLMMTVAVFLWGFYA"}, "[4]": {"details": "cited from earlier work"}, "[5]": {"biological_target": "SGLT2 (Homo sapiens, UniProt P31639)", "sequence (P31639 whole entry)": "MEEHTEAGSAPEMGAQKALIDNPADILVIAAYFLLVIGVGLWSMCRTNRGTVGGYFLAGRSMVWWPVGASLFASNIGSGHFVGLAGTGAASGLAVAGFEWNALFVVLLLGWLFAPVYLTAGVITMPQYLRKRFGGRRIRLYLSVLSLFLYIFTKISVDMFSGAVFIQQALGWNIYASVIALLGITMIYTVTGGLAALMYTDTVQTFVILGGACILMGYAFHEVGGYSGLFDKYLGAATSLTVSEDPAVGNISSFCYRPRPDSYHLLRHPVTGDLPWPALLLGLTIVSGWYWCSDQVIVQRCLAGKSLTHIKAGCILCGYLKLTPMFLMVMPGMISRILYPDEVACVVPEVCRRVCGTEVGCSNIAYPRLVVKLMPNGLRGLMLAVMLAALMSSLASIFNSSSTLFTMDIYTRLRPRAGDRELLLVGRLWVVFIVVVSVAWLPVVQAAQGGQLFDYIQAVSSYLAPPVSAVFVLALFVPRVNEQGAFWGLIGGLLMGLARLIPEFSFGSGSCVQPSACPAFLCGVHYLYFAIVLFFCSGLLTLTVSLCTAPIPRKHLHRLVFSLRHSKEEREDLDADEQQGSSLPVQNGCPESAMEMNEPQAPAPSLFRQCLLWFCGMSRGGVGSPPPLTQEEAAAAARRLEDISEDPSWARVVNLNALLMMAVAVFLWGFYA", "details": "read-out: Ki for SGLT2", "from_the_text": "A method of making radiolabeled inhibitors pyranosides is also provided."}, "[6]": {"biological_target": "T2, SGLT1 (Homo sapiens, UniProt P13866)", "T2 sequence (P13866 1-664)": "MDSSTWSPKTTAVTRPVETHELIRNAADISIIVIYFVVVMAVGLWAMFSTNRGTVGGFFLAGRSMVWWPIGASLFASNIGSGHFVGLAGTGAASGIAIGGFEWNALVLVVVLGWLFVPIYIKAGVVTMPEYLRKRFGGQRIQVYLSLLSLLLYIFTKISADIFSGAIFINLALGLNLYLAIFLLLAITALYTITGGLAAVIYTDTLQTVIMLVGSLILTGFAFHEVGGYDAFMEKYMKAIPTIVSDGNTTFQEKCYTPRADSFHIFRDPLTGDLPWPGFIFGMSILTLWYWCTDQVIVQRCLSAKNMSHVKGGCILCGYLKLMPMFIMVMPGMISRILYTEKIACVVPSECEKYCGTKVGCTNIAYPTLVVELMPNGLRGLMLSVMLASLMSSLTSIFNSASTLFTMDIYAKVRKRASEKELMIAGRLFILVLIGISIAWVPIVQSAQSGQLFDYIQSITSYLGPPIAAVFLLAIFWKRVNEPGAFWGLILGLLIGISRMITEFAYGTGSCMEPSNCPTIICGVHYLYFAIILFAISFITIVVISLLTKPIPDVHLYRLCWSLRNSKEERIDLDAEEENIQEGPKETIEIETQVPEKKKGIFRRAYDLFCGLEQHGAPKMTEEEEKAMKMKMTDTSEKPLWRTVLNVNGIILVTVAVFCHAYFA", "details": "specific, non-metabolized substrate; cited from earlier work"}, "[7]": {"test_system": "GLUTs", "details": "cited from earlier work"}, "[8]": {"details": "major metabolite of dapagliflozin; cited from earlier work"}, "[9]": {"details": "for 1-25 hours after oral administration of dapagliflozin; cited from earlier work"}, "[10]": {"details": "cited from earlier work", "remark": "listed apart in the source"}, "[11]": {"details": "images summed 50-60 minutes post injection"}, "[12]": {"details": "type 2 diabetic patients, tested doses"}}, "data": [{"smiles": "O=C[C@H]([18F])[C@@H](O)[C@H](O)[C@H](O)CO", "note": "[2-FDG, 2-deoxy-2-[18F]fluoro-D-glucose]", "values": [{"measurement": "substrate for SGLTs", "setting": "[1]", "value": "not a substrate"}]}, {"smiles": "O=CC[C@@H](O)[C@H](O)[C@H](O)CO", "note": "[2-deoxy-D-glucose]", "values": [{"measurement": "substrate for SGLTs", "setting": "[1]", "value": "poor substrates"}]}, {"smiles": "Cc1cc(OCCCNCC(C)(C)C(N)=O)ccc1Cc1c(O[C@@H]2O[C@H](CO)[C@@H](O)[C@H](O)[C@H]2O)n[nH]c1C(C)C", "note": "[DSP-3235]", "values": [{"measurement": "selectivity among SGLTs (in words)", "setting": "[2]", "value": "targets SGLT1"}]}, {"smiles": "O=C(CCc1ccc(O)cc1)c1c(O)cc(O)cc1O[C@@H]1O[C@H](CO)[C@@H](O)[C@H](O)[C@H]1O", "note": "[Phlorizin]", "values": [{"measurement": "[18F]-dapagliflozin binding to the kidney cortex after pre-injection of the substance", "setting": "[3]; [11]", "value": "completely blocked"}]}, {"smiles": "COC(=O)OC[C@H]1O[C@@H](Oc2cc(C)cc(O)c2C(=O)CCc2ccc3occc3c2)[C@H](O)[C@@H](O)[C@@H]1O", "note": "[T-1095]", "values": [{"measurement": "blood glucose levels", "setting": "[4]; diabetic animals", "value": "lowered blood glucose levels"}, {"measurement": "renal glucose excretion", "setting": "[4]; diabetic animals", "value": "resulted in renal glucose excretion"}, {"measurement": "hyperinsulinemia and hypertriglyceridemia", "setting": "[4]; diabetic rodents", "value": "reduced hyperinsulinemia and hypertriglyceridemia"}, {"measurement": "post-prandial hyperglycemia", "setting": "[4]; diabetic rodents", "value": "suppressed post-prandial hyperglycemia"}, {"measurement": "absorption of the pro-drug", "setting": "[4]; oral", "value": "absorbed from the gut into the circulation"}, {"measurement": "selectivity among SGLTs (in words)", "setting": "[2]", "value": "nonselective"}]}, {"smiles": "CCOc1ccc(Cc2cc([C@@H]3O[C@H](CO)[C@@H](F)[C@H](O)[C@H]3O)ccc2Cl)cc1", "note": "[[18F]-dapagliflozin, (1S)-1,5-anhydro-1-C-{4-chloro-3-[(4-ethoxyphenyl)methyl]phenyl}-4-[18F]-4-deoxy-D-glucitol]", "values": [{"measurement": "Ki", "setting": "[5]", "value": "1 to 5", "unit": "nM"}]}, {"smiles": "CCOc1ccc(Cc2cc([C@@H]3O[C@H](CO)[C@@H]([18F])[C@H](O)[C@H]3O)ccc2Cl)cc1", "note": "[[18F]-dapagliflozin, (1S)-1,5-anhydro-1-C-{4-chloro-3-[(4-ethoxyphenyl)methyl]phenyl}-4-[18F]-4-deoxy-D-glucitol]", "values": [{"measurement": "tracer binding site in microPET image", "setting": "[3]; [11]", "value": "binding to the outer cortex of the kidney"}, {"measurement": "18F-activity in the intestine", "setting": "[3]; with pre-injection of dapagliflozin or phlorizin", "value": "excretion by the liver into bile"}]}, {"smiles": "CO[C@H]1O[C@H](CO)[C@@H](O)[C@H](O)[C@H]1O", "note": "[alpha-methyl-D-glucopyranoside]", "values": [{"measurement": "concentration reached in cells above plasma concentrations", "setting": "[6]", "value": "≤ 800", "unit": "fold"}, {"measurement": "substrate for GLUTs", "setting": "[7]", "value": "not a substrate"}]}, {"smiles": "CCOc1ccc(Cc2cc([C@@H]3O[C@H](CO)[C@@H](O)[C@H](O[C@@H]4O[C@H](C(=O)O)[C@@H](O)[C@H](O)[C@H]4O)[C@H]3O)ccc2Cl)cc1", "note": "[dapagliflozin 3-O-glucuronide]", "values": [{"measurement": "activity of the metabolite", "setting": "[8]", "value": "inactive"}, {"measurement": "plasma level of the metabolite versus native drug", "setting": "[9]", "value": "higher than the native drug"}]}, {"smiles": "CCOc1ccc(Cc2cc([C@@H]3O[C@H](CO)[C@@H](O)[C@H](O)[C@H]3O)ccc2Cl)cc1", "note": "[dapagliflozin]", "values": [{"measurement": "[18F]-dapagliflozin binding to the kidney cortex after pre-injection of the substance", "setting": "[3]; [11]", "value": "completely blocked"}, {"measurement": "weight loss", "setting": "[10]; over 28-58 weeks", "value": "up to 3.5 Kg"}, {"measurement": "reduction in fasting serum glucose", "setting": "[10]; [12]", "value": "22±10", "unit": "%"}, {"measurement": "reduction in post-prandial glucose absorption (area under the plasma glucose concentration curve)", "setting": "[10]; [12]", "value": "20±10", "unit": "%"}, {"measurement": "sustained urinary glucose excretion", "setting": "[10]; [12]", "value": "30-65 gram/day"}, {"measurement": "increase in hematocrit", "setting": "[10]; type 2 diabetic patients", "value": "up to 3%"}, {"measurement": "increase in urine volume", "setting": "[10]; type 2 diabetic patients", "value": "up to 470 ml/day"}, {"measurement": "loss of urinary glucose", "setting": "[10]; type 2 diabetic patients", "value": "200 to 300", "unit": "kcal/day"}, {"measurement": "reduction in diastolic blood pressure", "setting": "[10]; type 2 diabetic patients", "value": "2-5 mm Hg"}]}, {"smiles": "O=C[C@@H](O)[C@@H](O)[C@H](O)[C@H](O)CO", "note": "[mannose]", "values": [{"measurement": "substrate for SGLTs", "setting": "[1]", "value": "poor substrates"}]}, {"smiles": "Cc1c(Cc2ccc(OC(C)C)cc2)c(O[C@@H]2O[C@H](CO)[C@@H](O)[C@H](O)[C@H]2O)nn1C(C)C", "note": "[remogliflozin]", "values": [{"measurement": "selectivity among SGLTs (in words)", "setting": "[2]", "value": "markedly increased selectivity for SGLT2"}]}]}
